Results: patent US9943524B2, “Use of alkaloid in preparing pharmaceutical compositions for preventing or treating pulmonary fibrosis” (China Pharmaceutical University, priority 2014, dated 2018)

Columns and labels:
[1] = tested on: cough of guinea pig induced by citric acid; conditions: cited from earlier work
[2] = tested on: pulmonary fibrosis mice induced by bleomycin; assay: Activity of 8 alkaloids and pentoxyverine against pulmonary fibrosis in mice (Embodiment 3); format: in vivo, C57BL/6 mice; conditions: intragastric from first day after model to 21th day; for pulmonary inflammation, injury and fibrosis in HE and Masson stained pathological sections: alkaloids and pentoxyverine 30 mg/kg (FIG. 1B, 1C)
Procedure: (§1) Female C57BL/6 mice (eight-week-old) are established for models after 7 days, the time is set for the mice to adapt to the environment. After fasts for overnight, the mice are anaesthetized by 3% chloral hydrate and fixed. Sterilize and incise neck skin longitudinally as little injury as possible. Split fascia and muscle with tweezers longitudinally and expose the windpipe. Then, about 35 μl (3.5 mg/kg) bleomycin are injected into windpipe with microinjector. Put the mice upright rapidly and rotate the mice for 3˜5 minutes, so that bleomycin is able to enter into the pulmones uniformly. Observe the breathing of mice. Sterilize neck injury with 75% alcohol tampon and stitch the wound, then 1 drop or 2 drops of benzylpenicillin injection is/are dripped into the suture. Put the mice back into dry and clean cages, and feed them normally after waking up. Operations are done on operating table at about […]. Physiological saline using in injection is injected into windpipe of sham operation group.
Experimental mice are randomly divided into 12 groups: 10 mice in model group, 10 mice in pentoxyverine group, and 5 mice in any other group. Group 1 is sham operation group, group 2 is model group, group 3 is pentoxyverine group, group 4 is positive drug pirfenidone group, groups 5-12 are compounds I-VIII administration group respectively. Models of groups 2-12 are established by using bleomycin with the same method used in embodiment 2. From the first day after successfully establishing model, 30 mg/kg pentoxyverine and 300 mg/kg pirfenidone are given to group 3 and group 4 by means of intragastric administration respectively. 30 mg/kg compounds I-VIII are given to groups 5-12 also by means of intragastric administration respectively. Besides, same doses of solvent are given to sham operation group and model group until the 21th day. After the last intragastric administration, the mice are killed to collect the lung tissue, and the right lobule is used for determining the content of hydroxyproline, while the left lobule is used for preparing pathological sections.

[3] = tested on: pulmonary fibrosis mice induced by bleomycin; assay: Masson stained pathological evaluation and imaging analysis of collagen (Embodiment 4); format: in vivo, C57BL/6 mice; conditions: for collagen deposition (Masson staining, integrated optical density): 30, 60 mg/kg, prevention and treatment groups (FIG. 5, 6), lower dose better in prevention, higher dose better in treatment
Procedure: as §1
(§2) Model animals are divided into prevention groups and treatment groups, then drugs are given to the two groups respectively. According to internationally methods of drug administration, drugs are given continuously to the prevention groups by means of intragastric administration from the second day after successfully establishing model to the 14th day, and drugs are given continuously to treatment groups by means of intragastric administration from the 8th day after successfully establishing model to the 21th day. Groups and dosage regimen are shown in tab.1.
Masson staining is a method aiming at specific staining of fibrillar collagen. After the last intragastric administration, the mice are anaesthetized and killed to collect the lung tissue. Immerse the left lobule in 10% formalin, and embed it by paraffin after being fixed, then is cut it into slices to observe the collagen deposition by Masson staining. Semi quantitative analysis is made by using Image-Pro Plus6.0. Integrated optical density (IOD) of collagen in each visual field is measured after Masson staining. 5 samples are studied in each group and 5 visual fields are picked out from each group. Statistics analysis is made by calculating mean value which is considered as relative amount of collagen in each group.

[4] = tested on: pulmonary fibrosis mice induced by bleomycin; assay: Content determination of hydroxyproline in lung tissue (Embodiment 4); format: in vivo, C57BL/6 mice; conditions: 30 mg/kg and 60 mg/kg, prevention groups and treatment groups (FIG. 7); lower dose slightly better
Procedure: as §1, §2
Hydroxyproline mainly exists in collagen protein, but there is only a very small amounts in elastin proteins and it cannot found in other proteins. Therefore the content of collagen protein can be indicated by measuring the content of hydroxyproline, so as to evaluate the degree of pulmonary fibrosis. Method of test kit (which is purchased from Nanjing Jiancheng Biological Technology Co., Ltd.) according to specification is used in determination of hydroxyproline. Results can be seen in FIG. 7.

[5] = tested on: pulmonary fibrosis mice induced by bleomycin; assay: Detection of the mice lung index (Embodiment 4); format: in vivo, C57BL/6 mice; conditions: 30 and 60 mg/kg, prevention groups and treatment groups, versus model group (FIG. 2); lower dose better in prevention groups
Procedure: as §1, §2
After the last intragastric administration, the mice are killed to strip and weigh the lung, and the lung index is the lung weight divided by mouse weight (FIG. 2). […] In general, the 3 compounds have better effect in decreasing the mortality of mice than the positive drug pirfenidone.

[6] = tested on: pulmonary fibrosis mice induced by bleomycin; assay: Determination of mice mortality (Embodiment 4); format: in vivo, C57BL/6 mice
Procedure: as §1, §2
From the 0th day (the day when the model is established) to 14th day, drugs are given continuously to prevention groups. From the 8th day after successfully establishing model to 21th day, drugs are given continuously to treatment groups. Statistical analysis of death of animals in each group is carried on every day and the survival rate of animals in each group is calculated. Results are shown in tab.2.

[7] = tested on: pulmonary fibrosis mice induced by bleomycin; assay: HE stained pathological evaluation and inflammation scores (Embodiment 4); format: in vivo, C57BL/6 mice; conditions: for lung tissue inflammation scores (HE stained, grade 0-3): 30, 60 mg/kg, prevention and treatment groups (FIG. 4), lower dose better; for pulmonary inflammation and injury, HE stained pathological changes: prevention groups and treatment groups (FIG. 3), lower dose (30 mg/kg) better than higher dose
Procedure: as §1, §2
After the last intragastric administration, the mice are anaesthetized and killed to collect the lung tissue. Immerse the left lobule in 10% formalin, and embed it by paraffin after being fixed, then cut it into slices to observe the pathological changes by HE staining. As is shown in FIG. 3, structures of lobules of sham operation group are normal and the alveolar walls are complete without inflammation and fibrosis pathological changes. Obvious inflammation injury and masses of tissue begin to appear in lung of mice in model group, then the normal lung tissue disappears and alveolar is blocked. […] The groups with lower dose (30 mg/kg) of the 3 compounds show better effect than the groups with higher dose. The pulmonary inflammation disappears and alveolar structure is clear in groups with lower dose.
Inflammatory classification semi quantitative statistics analysis is made according to results of HE staining. Grade 0 represents normal tissue or minimal inflammation change. Grade 1 (+) represents mild to moderate inflammation change, and lung tissue without obvious damage. Grade 2 (++) represents moderate to severe inflammation injury, and alveolar septum is thickened to form masses of tissue, or lung tissue with damage caused by partial area inflammation. Grade 3 (+++) represents severe inflammation injury, and structure of restricted regions in lung tissue is severely damaged, thus resulting in obliteration. […] The groups with lower dose show better effect than the groups with higher dose. In general, the 3 compounds have better effect in decreasing the pulmonary inflammation than the positive drug pirfenidone.

[8] = tested on: TGF-β1; assay: ELISA content determination of TGF-β1 in mice lung tissue (Embodiment 4); format: in vivo, C57BL/6 mice; conditions: for content of TGF-β1 in lung tissue (ELISA): 30 mg/kg and 60 mg/kg, prevention groups and treatment groups, versus model group (FIG. 8), lower dose more effective; for effect on content of TGF-β1, comparison among compounds: ELISA, lung tissue
Procedure: as §1, §2
TGF-β1 is a universally recognized strong pro-fibrotic cytokine. It can stimulate the cells to synthesize and secrete extracellular matrix as well as exchange the activity of matrix-degrading enzyme component and directly increase the deposition of ECM. The progress of pulmonary fibrosis can be slowed down by decreasing the content of TGF-β1 in lung tissue. Elisa test kit (which is purchased from Shanghai Excell Biological Technology Co., Ltd.) according to specification is used in the determination of TGF-β1 in mice lung tissue. Results can be seen in FIG. 8.

[9] = tested on: cough reflex pathway; conditions: in vivo; cited from earlier work
[10] = prevention groups, 30 mg/kg intragastric to the 14th day
[11] = prevention groups, 30 mg/kg intragastric to the 14th day, 10 animals
[12] = prevention groups, 60 mg/kg intragastric to the 14th day
[13] = prevention groups, 60 mg/kg intragastric to the 14th day, 10 animals
[14] = treatment groups, 30 mg/kg intragastric from the 8th to the 21th day
[15] = treatment groups, 30 mg/kg intragastric from the 8th to the 21th day, 18 animals
[16] = treatment groups, 60 mg/kg intragastric from the 8th to the 21th day
[17] = treatment groups, 60 mg/kg intragastric from the 8th to the 21th day, 18 animals

## CC[C@@H]1[C@H]2CCCCN3CC[C@@H]([C@H]4[C@@H]1OC(=O)[C@H]4C)[C@@H]23 [isostenine, reference compound]
[1]
  antitussive effect: very good antitussive effect

## CCN(CC)CCOCCOC(=O)C1(c2ccccc2)CCCC1 [Pentoxyverine, pentoxyverine, reference compound]
[2]
  pulmonary inflammation, injury and fibrosis in HE and Masson stained pathological sections: cannot decrease the degree of pulmonary injury and fibrosis
[2]; alkaloids and pentoxyverine 30 mg/kg, pirfenidone 300 mg/kg, versus model group (FIG. 1A)
  content of hydroxyproline in lung tissue: no significant difference

## CC[C@@H]1[C@@H]2CCCCN3[C@@H]2[C@@H](C[C@H]3[C@@H]2C[C@H](C)C(=O)O2)[C@H]2[C@@H]1OC(=O)[C@H]2C [Compound III, Tuberostemonine J]
[2]
  pulmonary inflammation, injury and fibrosis in HE and Masson stained pathological sections: recover to nearly normal structure
[1]
  antitussive effect: very good antitussive effect
  antitussive effect compared with codein: weaker antitussive effect than that of codein

## CC[C@@H]1[C@H]2CCCCN3CC[C@H]([C@@H]4[C@H]1OC(=O)[C@@H]4C)[C@@H]23 [Compound VIII, Sessilifoline B]
[2]
  pulmonary inflammation, injury and fibrosis in HE and Masson stained pathological sections: recover to nearly normal structure
[3]
  collagen deposition (Masson staining, integrated optical density): significantly decrease collagen deposition
[4]
  content of hydroxyproline in lung tissue: effectively decrease the content of hydroxyproline
[5]
  lung index (lung weight divided by mouse weight): significantly decrease the lung index
[6]; [10]
  Survival rate: 90%
[6]; [11]
  Mortality (number of dead animals): 1
[6]; [12]
  Survival rate: 80%
[6]; [13]
  Mortality (number of dead animals): 2
[6]; [14]
  Survival rate: 83%
[6]; [15]
  Mortality (number of dead animals): 3
[6]; [16]
  Survival rate: 78%
[6]; [17]
  Mortality (number of dead animals): 4
[7]
  lung tissue inflammation scores (HE stained, grade 0-3): significantly decrease the pulmonary inflammation
  pulmonary inflammation and injury, HE stained pathological changes: significantly alleviate the pulmonary inflammation
[8]
  content of TGF-β1 in lung tissue (ELISA): effectively decrease the content of TGF-β1
  effect on content of TGF-β1, comparison among compounds: slightly better than that of compound VII

## C[C@@H]1C[C@]2(CCCCN3[C@H]2CC[C@H]3[C@@H]2C[C@H](C)C(=O)O2)OC1=O [croomine, reference compound]
[9]
  antitussive activities, comparison among stemona tuberosa alkaloids: similar

## CC[C@@H]1[C@H]2CCCCN3[C@@H]2[C@@H](C[C@H]3[C@@H]2C[C@H](C)C(=O)O2)[C@H]2[C@@H]1OC(=O)[C@H]2C [Compound IV, Tuberostemonine H]
[1]
  antitussive effect: very good antitussive effect
  antitussive effect compared with codein: weaker antitussive effect than that of codein

## CC[C@H]1[C@H]2[C@@H](CCCN3[C@H]2CC[C@H]3[C@@H]2C[C@H](C)C(=O)O2)O[C@]12C=C(C)C(=O)O2 [stemoninine, reference compound]
[9]
  antitussive activities, comparison among stemona tuberosa alkaloids: similar

## CC[C@@H]1[C@H]2CCCCN3[C@H]2[C@H](C[C@@H]3[C@@H]2C[C@H](C)C(=O)O2)[C@@H]2[C@H]1OC(=O)[C@H]2C [Compound II, Tuberostemonine A]
[2]
  pulmonary inflammation, injury and fibrosis in HE and Masson stained pathological sections: recover to nearly normal structure

## CC[C@@H]1[C@H]2CCCCN3[C@H]2[C@H](C[C@H]3[C@@H]2C[C@H](C)C(=O)O2)[C@@H]2[C@H]1OC(=O)[C@H]2C [Compound I, Tuberostemonine]
[2]
  pulmonary inflammation, injury and fibrosis in HE and Masson stained pathological sections: recover to nearly normal structure
[9]
  antitussive activities, comparison among stemona tuberosa alkaloids: weaker
[3]
  collagen deposition (Masson staining, integrated optical density): significantly decrease collagen deposition
[3]; in general, Masson staining
  effect in decreasing the collagen deposition, comparison among compounds: slightly better than that of compound VIII
[4]
  content of hydroxyproline in lung tissue: effectively decrease the content of hydroxyproline
[5]
  lung index (lung weight divided by mouse weight): significantly decrease the lung index
[6]; [10]
  Survival rate: 100%
[6]; [11]
  Mortality (number of dead animals): 0
[6]; [12]
  Survival rate: 90%
[6]; [13]
  Mortality (number of dead animals): 1
[6]; prevention groups, lower dose (30 mg/kg) better
  protective effect on model mice (mortality), comparison among compounds: more effective than compound VIII
[6]; [14]
  Survival rate: 89%
[6]; [15]
  Mortality (number of dead animals): 2
[6]; [16]
  Survival rate: 83%
[6]; [17]
  Mortality (number of dead animals): 3
[7]
  lung tissue inflammation scores (HE stained, grade 0-3): significantly decrease the pulmonary inflammation
  pulmonary inflammation and injury, HE stained pathological changes: significantly alleviate the pulmonary inflammation
[8]
  content of TGF-β1 in lung tissue (ELISA): effectively decrease the content of TGF-β1
  effect on content of TGF-β1, comparison among compounds: slightly better than that of compound VII
